Columns and labels:
[1] = tested on: high cholesterol-fed hamsters; assay: Lipid lowering effects in high cholesterol-fed hamsters; type: in vivo, Male Syrian hamsters; details: serum
Procedure: Lipid Lowering Effects in High Cholesterol-fed Hamsters
The compounds were tested for lipid lowering effects in high cholesterol-fed hamsters in accordance with the method described in Jpn Pharmacol Ther, 23 (suppl 4), s1047-1053 (1995). Male Syrian hamsters were fed the high cholesterol diet supplemented with 1% cholesterol and 10% coconut oil for 3 weeks. Before drug administration, blood was collected from the orbital venous plexus under ether anesthesia, and a serum total cholesterol level was measured. […] The designated doses of the compound of Example 1 or Bezafibrate were administrated to test groups and the vehicle solution was given to the control group orally once a day for 7 days under the high cholesterol diet feeding. The intact group of animals were fed normal diet. After 4 hours of the final administration, blood was collected by cardiac puncture, and the total cholesterol and triglyceride levels in the serum were determined by the enzymatic method.
The reduction rate (%) was calculated according to the following equation: [formula]

[2] = tested on: fructose-induced hyperlipidemic rats; assay: Hypotriglyceridemic activity in fructose-induced hyperlipidemic rats; type: in vivo, Sprague Dawley rats; details: serum, 30 mg/kg p.o. once a day for 7 days, blood 2 hours after final administration; for inhibition in vivo at 30 mg/kg: Rattus norvegicus, po, read-out: Triglyceride (% Reduction)
Procedure: Hypotriglyceridemic Activity in Fructose-induced Hyperlipidemic Rats
The compounds were tested for a hypotriglyceridemic activity in fructose-induced hyperlipidemic rats in accordance with the method described in Nippon Yakurigaku Zasshi, 92 (3), 175-180 (1988). […] 75% fructose solution as drinking water was given to the animals for 7 days, while normal water was given to the intact groups ad libitum. During the experimental period the test compounds suspended in 3% gum arabic were given to the test group orally once a day in a daily dose of 30 mg/kg. The vehicle solution was given to the control group and the intact group. After 2 hours from the final administration, blood was collected from the abdominal aorta under ether anesthesia, and levels of total cholesterol and triglyceride in the serum were measured. The reduction rate (%) was calculated according to the following equation: [formula]
Above experimental model is well known as a model of hypertriglicemia.

[3] = tested on: Salmonella typhimurium TA100 and TA98; assay: Mutagenicity test (reverse mutation test); type: cell-based; details: absence or presence of S9 mix
Text: The mutagenicity of the compound of Example 1 was examined by a reverse mutation test using Salmonella typhimurium TA100 and TA98 in the absence or presence of S9 mix.

[4] = tested on: mice; assay: Acute toxicity, single oral dose; type: in vivo; details: oral 2000 mg/kg, observed daily for 2 weeks
Text: The animals were observed daily for 2 weeks after the administration.

[5] = 30 mg/kg orally once a day for 7 days, minus = increase
[6] = 60 mg/kg orally once a day for 7 days, minus = increase
[7] = 120 mg/kg orally once a day for 7 days, minus = increase
[8] = 15 mg/kg orally once a day for 7 days, minus = increase
[9] = Table 4 (Example 65), 15 mg/kg p.o.

SMILES: CC(C)(Oc1ccc(CCNC(=O)c2ccc(Cl)cc2)cc1)C(=O)O [Bezafibrate, reference compound]
- Total cholesterol (% Reduction) [1, 5]: −5%
- Triglyceride (% Reduction) [1, 5]: −21%
- Total cholesterol (% Reduction) [1, 6]: −0%
- Triglyceride (% Reduction) [1, 6]: −18%
- Total cholesterol (% Reduction) [1, 7]: 20%
- Triglyceride (% Reduction) [1, 7]: 16%

SMILES: N#CN=C1NC(=O)/C(=C\c2ccc(C=Cc3ccccc3)cc2)S1 [Example 1, 2-(N-Cyanoimino)-5-[(E)-4-stylylbenzylidene]thiazolidin-4-one]
- Triglyceride (% Reduction) [2]: 47%
- mutagenicity (number of revertant colonies) [3]: not mutagenic
- Total cholesterol (% Reduction) [1, 8]: 26%
- Triglyceride (% Reduction) [1, 8]: 60%
- Total cholesterol (% Reduction) [1, 5]: 25%
- Triglyceride (% Reduction) [1, 5]: 62%
- Total cholesterol (% Reduction) [1, 6]: 29%
- Triglyceride (% Reduction) [1, 6]: 69%
- Total cholesterol (% Reduction) [1, 7]: 41%
- Triglyceride (% Reduction) [1, 7]: 80%
- single dose toxicity: deaths [4]: no deaths were observed

SMILES: CC(=Cc1ccccc1)c1ccc(/C=C2/SC(=NC#N)NC2=O)cc1 [Example 2, 2-(N-Cyanoimino)-5-[(E)-4-(a-methylstylyl)benzylidene]thiazolidin-4-one]
- Triglyceride (% Reduction) [2]: 67%
- Total cholesterol (% Reduction) [1, 9]: 27%
- Triglyceride (% Reduction) [1, 9]: 57%

SMILES: N#CN=C1NC(=O)C(=Cc2ccc(COCc3ccccc3)cc2)S1 [Example 3, 2-(N-Cyanoimino)-5-[4-(benzyloxymethyl)benzylidene]thiazolidin-4-one]
- inhibition in vivo at 30 mg/kg [2]: 64%
- Total cholesterol (% Reduction) [1, 9]: 16%
- Triglyceride (% Reduction) [1, 9]: 17%

SMILES: CC(=Cc1ccc(/C=C2/SC(=NC#N)NC2=O)cc1)c1ccccc1 [Example 4, 2-(N-Cyanoimino)-5-[(E)-4-(b-methylstylyl)benzylidene]thiazolidin-4-one]
- Triglyceride (% Reduction) [2]: 42%

SMILES: N#CN=C1NC(=O)C(=Cc2ccc(Oc3ccc(Cl)cc3)cc2)S1 [Example 6, 2-(N-Cyanoimino)-5-[4-(4-chlorophenoxy)benzylidene]thiazolidin-4-one]
- inhibition in vivo at 30 mg/kg [2]: 84%

SMILES: N#CN=C1NC(=O)C(=Cc2ccc(Sc3ccccc3)cc2)S1 [Example 7, 2-(N-Cyanoimino)-5-(4-phenylthiobenzylidene)thiazolidin-4-one]
- inhibition in vivo at 30 mg/kg [2]: 60%
- Total cholesterol (% Reduction) [1, 9]: 18%
- Triglyceride (% Reduction) [1, 9]: 12%

SMILES: N#CN=C1NC(=O)/C(=C\c2ccc(C=Cc3ccccc3F)cc2)S1 [Example 8, 2-(N-Cyanoimino)-5-[(E)-4-(2-fluorostylyl)benzylidene]thiazolidin-4-one]
- Triglyceride (% Reduction) [2]: 47%

SMILES: Cc1ccc(C)c(Oc2ccc(C=C3SC(=NC#N)NC3=O)cc2)c1 [Example 9, 2-(N-Cyanoimino)-5-[4-(2,5-dimethylphenoxy)benzylidene]thiazolidin-4-one]
- inhibition in vivo at 30 mg/kg [2]: 49%
- Total cholesterol (% Reduction) [1, 9]: 15%
- Triglyceride (% Reduction) [1, 9]: 15%

SMILES: N#CN=C1NC(=O)C(=Cc2ccc(OCCc3ccccc3)cc2)S1 [Example 10, 2-(N-Cyanoimino)-5-(4-phenethyloxybenzylidene)thiazolidin-4-one]
- inhibition in vivo at 30 mg/kg [2]: 39%
- single dose toxicity: deaths [4]: no deaths were observed

SMILES: CC(COc1ccc(C=C2SC(=NC#N)NC2=O)cc1)c1ccccc1 (stereo not shown) [Example 11, 2-(N-Cyanoimino)-5-[4-(2-phenylpropoxy)benzylidene]thiazolidin-4-one]
- inhibition in vivo at 30 mg/kg [2]: 62%

SMILES: N#CN=C1NC(=O)C(=Cc2cccc(OCCc3ccccc3)c2)S1 [Example 12, 2-(N-Cyanoimino)-5-(3-phenethyloxybenzylidene)thiazolidin-4-one]
- inhibition in vivo at 30 mg/kg [2]: 59%

SMILES: N#CN=C1NC(=O)C(=Cc2ccc(OCc3ccccc3)cc2)S1 [Example 13, 2-(N-Cyanoimino)-5-(4-benzyloxybenzylidene)thiazolidin-4-one]
- inhibition in vivo at 30 mg/kg [2]: 55%

SMILES: N#CN=C1NC(=O)C(=Cc2ccc(-c3cc4cc(Cl)ccc4o3)cc2)S1 [Example 14, 2-(N-Cyanoimino)-5-[4-(5-chlorobenzofuran-2-yl)benzylidene]thiazolidin-4-one]
- inhibition in vivo at 30 mg/kg [2]: 36%
- Total cholesterol (% Reduction) [1, 9]: 11%
- Triglyceride (% Reduction) [1, 9]: 24%

SMILES: COc1ccc(C=Cc2ccc(/C=C3/SC(=NC#N)NC3=O)cc2)cc1 [Example 15, 2-(N-Cyanoimino)-5-[(E)-4-(4-methoxystylyl)benzylidene]thiazolidin-4-one]
- Triglyceride (% Reduction) [2]: 47%
- Total cholesterol (% Reduction) [1, 9]: 32%
- Triglyceride (% Reduction) [1, 9]: 61%

SMILES: N#CN=C1NC(=O)C(=Cc2cccc(Oc3ccccc3)c2)S1 [Example 16, 2-(N-Cyanoimino)-5-(3-phenoxybenzylidene)thiazolidin-4-one]
- inhibition in vivo at 30 mg/kg [2]: 54%

SMILES: N#CN=C1NC(=O)C(=Cc2ccc(OCc3ccc4c(c3)OCO4)cc2)S1 [Example 17, 2-(N-Cyanoimino)-5-[4-(1,3-benzodioxol-5-ylmethoxy)benzylidene]thiazolidin-4-one]
- inhibition in vivo at 30 mg/kg [2]: 37%

SMILES: N#CN=C1NC(=O)C(=Cc2ccc(OCc3ccc(Cl)cc3)cc2)S1 [Example 19, 2-(N-Cyanoimino)-5-[4-(4-chlorobenzyloxy)benzylidene]thiazolidin-4-one]
- inhibition in vivo at 30 mg/kg [2]: 38%

SMILES: N#CN=C1NC(=O)C(=Cc2ccccc2OCCc2ccccc2)S1 [Example 21, 2-(N-Cyanoimino)-5-(2-phenethyloxybenzylidene)thiazolidin-4-one]
- inhibition in vivo at 30 mg/kg [2]: 48%

SMILES: N#CN=C1NC(=O)C(=Cc2ccc(Oc3ccccc3)cc2)S1 [Example 22, 2-(N-Cyanoimino)-5-(4-phenoxybenzylidene)thiazolidin-4-one]
- inhibition in vivo at 30 mg/kg [2]: 65%

SMILES: CCC(Oc1ccc(C)cc1)c1ccccc1 (stereo not shown) [Example 32]
- inhibition in vivo at 30 mg/kg [2]: 47%

— US6380229B1, “2-(N-cyanoimino)thiazolidin-4-one derivatives” (Fujimoto Co., Ltd., priority 2001, dated 2002)
